According to PubChem BioAssay (NCI):
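Cells were grown in 96-well plates and exposed to each compound for 48 hours at five concentrations; endpoints were interpolated linearly between bracketing concentrations, or set to the highest concentration if not reached. Here, GI50 denotes the concentration required for 50% inhibition of growth. TGI denotes the concentration required for complete inhibition of growth.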

What was measured:
Test in all cases: inhibition of tumour cell growth, NCI panel, 48 h
786-0 renal = tested on: 786-0 renal
A498 renal = tested on: A498 renal
A549 NSCLC = tested on: A549 NSCLC
ACHN renal = tested on: ACHN renal
BT-549 breast = tested on: BT-549 breast
CAKI-1 renal = tested on: CAKI-1 renal
CCRF-CEM leukemia = tested on: CCRF-CEM leukemia
COLO 205 colon = tested on: COLO 205 colon
DU-145 prostate = tested on: DU-145 prostate
EKVX NSCLC = tested on: EKVX NSCLC
HCC-2998 colon = tested on: HCC-2998 colon
HCT-116 colon = tested on: HCT-116 colon
HCT-15 colon = tested on: HCT-15 colon
HL-60(TB) leukemia = tested on: HL-60(TB) leukemia
HOP-62 NSCLC = tested on: HOP-62 NSCLC
HOP-92 NSCLC = tested on: HOP-92 NSCLC
HS 578T breast = tested on: HS 578T breast
HT29 colon = tested on: HT29 colon
IGROV1 ovarian = tested on: IGROV1 ovarian
K-562 leukemia = tested on: K-562 leukemia
KM12 colon = tested on: KM12 colon
LOX IMVI melanoma = tested on: LOX IMVI melanoma
M14 melanoma = tested on: M14 melanoma
MALME-3M melanoma = tested on: MALME-3M melanoma
MCF7 breast = tested on: MCF7 breast
MDA-MB-231 breast = tested on: MDA-MB-231 breast
MDA-MB-435 = tested on: MDA-MB-435
MOLT-4 leukemia = tested on: MOLT-4 leukemia
NCI-H226 lung = tested on: NCI-H226 lung
NCI-H23 lung = tested on: NCI-H23 lung
NCI-H460 lung = tested on: NCI-H460 lung
NCI-H522 lung = tested on: NCI-H522 lung
NCI/ADR-RES ovarian = tested on: NCI/ADR-RES ovarian
OVCAR-3 ovarian = tested on: OVCAR-3 ovarian
OVCAR-4 ovarian = tested on: OVCAR-4 ovarian
OVCAR-5 ovarian = tested on: OVCAR-5 ovarian
OVCAR-8 ovarian = tested on: OVCAR-8 ovarian
PC-3 prostate = tested on: PC-3 prostate
RPMI-8226 leukemia = tested on: RPMI-8226 leukemia
RXF 393 renal = tested on: RXF 393 renal
SF-268 CNS = tested on: SF-268 CNS
SF-295 CNS = tested on: SF-295 CNS
SF-539 CNS = tested on: SF-539 CNS
SK-MEL-2 melanoma = tested on: SK-MEL-2 melanoma
SK-MEL-28 melanoma = tested on: SK-MEL-28 melanoma
SK-MEL-5 melanoma = tested on: SK-MEL-5 melanoma
SK-OV-3 ovarian = tested on: SK-OV-3 ovarian
SN12C renal = tested on: SN12C renal
SNB-19 CNS = tested on: SNB-19 CNS
SNB-75 CNS = tested on: SNB-75 CNS
SR leukemia = tested on: SR leukemia
SW-620 colon = tested on: SW-620 colon
T-47D breast = tested on: T-47D breast
TK-10 renal = tested on: TK-10 renal
U251 CNS = tested on: U251 CNS
UACC-257 melanoma = tested on: UACC-257 melanoma
UACC-62 melanoma = tested on: UACC-62 melanoma
UO-31 renal = tested on: UO-31 renal

Cc1nc2cnc(N)c(C#Cc3cncc(C(=O)Nc4ccc(Cl)c(C(F)(F)F)c4)c3)c2nc1C
GI50 (786-0 renal): 3.41 µM
TGI (786-0 renal): 17.9 µM
GI50 (A498 renal): 3.1 µM
TGI (A498 renal): 15.4 µM
GI50 (A549 NSCLC): 3.27 µM
TGI (A549 NSCLC): 22.6 µM
GI50 (ACHN renal): 1890 nM
TGI (ACHN renal): 12.1 µM
GI50 (BT-549 breast): 1990 nM
TGI (BT-549 breast): 6.64 µM
GI50 (CAKI-1 renal): 2260 nM
TGI (CAKI-1 renal): 15.6 µM
GI50 (CCRF-CEM leukemia): 3.75 µM
TGI (CCRF-CEM leukemia): 52.8 µM
GI50 (COLO 205 colon): 442 nM
TGI (COLO 205 colon): 9.17 µM
GI50 (DU-145 prostate): 2930 nM
TGI (DU-145 prostate): 13.3 µM
GI50 (EKVX NSCLC): 2480 nM
TGI (EKVX NSCLC): 19.1 µM
GI50 (HCC-2998 colon): 771 nM
TGI (HCC-2998 colon): 4.35 µM
GI50 (HCT-116 colon): 249 nM
TGI (HCT-116 colon): 2110 nM
GI50 (HCT-15 colon): 1550 nM
TGI (HCT-15 colon): 4.03 µM
GI50 (HL-60(TB) leukemia): 75.4 nM
TGI (HL-60(TB) leukemia): 4.12 µM
GI50 (HOP-62 NSCLC): 1870 nM
TGI (HOP-62 NSCLC): 18.7 µM
GI50 (HOP-92 NSCLC): 196 nM
TGI (HOP-92 NSCLC): 1780 nM
GI50 (HS 578T breast): 1640 nM
TGI (HS 578T breast): 7.19 µM
GI50 (HT29 colon): 346 nM
TGI (HT29 colon): 2110 nM
GI50 (IGROV1 ovarian): 653 nM
TGI (IGROV1 ovarian): 12.6 µM
GI50 (K-562 leukemia): 168 nM
TGI (K-562 leukemia): > 100 µM
TGI (KM12 colon): 3.53 µM
GI50 (LOX IMVI melanoma): 257 nM
TGI (LOX IMVI melanoma): 1430 nM
GI50 (M14 melanoma): 243 nM
TGI (M14 melanoma): 1850 nM
GI50 (MALME-3M melanoma): 118 nM
TGI (MALME-3M melanoma): 825 nM
GI50 (MCF7 breast): 1910 nM
TGI (MCF7 breast): 6.84 µM
GI50 (MDA-MB-231 breast): 308 nM
TGI (MDA-MB-231 breast): 5.09 µM
GI50 (MDA-MB-435): 442 nM
TGI (MDA-MB-435): 4.06 µM
GI50 (MOLT-4 leukemia): 1680 nM
TGI (MOLT-4 leukemia): 5.82 µM
GI50 (NCI-H226 lung): 555 nM
TGI (NCI-H226 lung): 9.79 µM
GI50 (NCI-H23 lung): 579 nM
TGI (NCI-H23 lung): 5.4 µM
GI50 (NCI-H460 lung): 2300 nM
TGI (NCI-H460 lung): 10.2 µM
GI50 (NCI-H522 lung): 1800 nM
TGI (NCI-H522 lung): 14.8 µM
GI50 (NCI/ADR-RES ovarian): 2950 nM
TGI (NCI/ADR-RES ovarian): 19.1 µM
GI50 (OVCAR-3 ovarian): 3.33 µM
TGI (OVCAR-3 ovarian): 12.7 µM
GI50 (OVCAR-4 ovarian): 4.01 µM
TGI (OVCAR-4 ovarian): 17 µM
GI50 (OVCAR-5 ovarian): 383 nM
TGI (OVCAR-5 ovarian): 11.3 µM
GI50 (OVCAR-8 ovarian): 4.45 µM
TGI (OVCAR-8 ovarian): 24.5 µM
GI50 (PC-3 prostate): 3.9 µM
TGI (PC-3 prostate): 18.7 µM
GI50 (RPMI-8226 leukemia): 3.32 µM
TGI (RPMI-8226 leukemia): 22.5 µM
GI50 (RXF 393 renal): 799 nM
TGI (RXF 393 renal): 4.23 µM
GI50 (SF-268 CNS): 2460 nM
TGI (SF-268 CNS): 15.6 µM
GI50 (SF-295 CNS): 3.44 µM
TGI (SF-295 CNS): 18.8 µM
GI50 (SF-539 CNS): 518 nM
TGI (SF-539 CNS): 10.2 µM
GI50 (SK-MEL-2 melanoma): 328 nM
TGI (SK-MEL-2 melanoma): 1890 nM
GI50 (SK-MEL-28 melanoma): 264 nM
TGI (SK-MEL-28 melanoma): 1680 nM
GI50 (SK-MEL-5 melanoma): 1080 nM
TGI (SK-MEL-5 melanoma): 11.1 µM
GI50 (SK-OV-3 ovarian): 9.11 µM
TGI (SK-OV-3 ovarian): 23.3 µM
GI50 (SN12C renal): 1160 nM
TGI (SN12C renal): 4 µM
GI50 (SNB-19 CNS): 6.53 µM
TGI (SNB-19 CNS): 20.7 µM
GI50 (SNB-75 CNS): 2430 nM
TGI (SNB-75 CNS): 11.8 µM
GI50 (SR leukemia): 1710 nM
TGI (SR leukemia): 5.02 µM
GI50 (SW-620 colon): 891 nM
TGI (SW-620 colon): 11.2 µM
GI50 (T-47D breast): 5.02 µM
TGI (T-47D breast): 27.6 µM
GI50 (TK-10 renal): 5.32 µM
TGI (TK-10 renal): 18.9 µM
GI50 (U251 CNS): 2880 nM
TGI (U251 CNS): 16.9 µM
GI50 (UACC-257 melanoma): 519 nM
TGI (UACC-257 melanoma): 9.65 µM
GI50 (UACC-62 melanoma): 264 nM
TGI (UACC-62 melanoma): 2150 nM
GI50 (UO-31 renal): 381 nM
TGI (UO-31 renal): 10.9 µM
